Measurements taken from US9750748B2, “Pyridazinones as DAAO enzyme inhibitors” (TAKEDA PHARMACEUTICAL COMPANY LIMITED, priority 2012, dated 2017).

Target: Human DAAO enzyme (Homo sapiens (Human), UniProt P14920)
Test: In Vitro DAAO Enzyme Assay (Amplex Red detection of H2O2 from D-Serine)
Format: biochemical
Conditions: inhibition of DAAO activity in the presence of 10 mM D-Serine; 60 minutes at 25° C.
Protocol: In Vitro DAAO Enzyme Assay
The functional activity of compounds inhibiting the DAAO enzyme was determined by utilizing the co-product of the catalysis of D-Serine, H2O2, which can be quantitatively measured using the ‘Amplex’ (trade mark) Red (Invitrogen) detection. ‘Amplex’ Red reagent is a colorless substrate that reacts with hydrogen peroxide (H2O2) with a 1:1 stoichiometry to produce highly fluorescent resorufin (excitation/emission maxima=570/585 nm).
The Km of D-Serine was measured for each enzyme batch to maintain consistency; this Km was used in subsequent assays.
On the day of the assay compounds were serially diluted in DMSO before being diluted 1:20 with assay buffer (20 mM Tris ph 7.4). […] Finally 5 μl ‘Amplex’ red reagent (Invitrogen) was added to all wells as per manufacturer's protocol. The plate was incubated for 60 minutes in the dark at 25° C. and the fluorescence in each well was measured in the Envision plate reader.
Concentration response curves were generated using the average of duplicate wells for each data point and analyzed using non-linear regression and four parameter curve fit.

Human DAAO enzyme, sequence (P14920 whole entry): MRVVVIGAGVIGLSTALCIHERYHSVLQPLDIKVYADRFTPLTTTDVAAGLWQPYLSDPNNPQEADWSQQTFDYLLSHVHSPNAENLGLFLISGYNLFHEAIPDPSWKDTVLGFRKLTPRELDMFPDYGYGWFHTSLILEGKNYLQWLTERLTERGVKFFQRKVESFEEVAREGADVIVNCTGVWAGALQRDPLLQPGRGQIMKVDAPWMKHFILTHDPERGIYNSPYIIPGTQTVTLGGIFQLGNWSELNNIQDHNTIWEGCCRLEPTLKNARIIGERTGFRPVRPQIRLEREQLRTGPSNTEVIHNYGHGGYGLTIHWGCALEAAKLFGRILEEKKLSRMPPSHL

SMILES	IC50 [nM]
CCc1cc(O)c(=O)[nH]n1 [Example 1, 6-Ethyl-4-hydroxypyridazin-3(2H)-one]	11
CC(C)CCc1cc(O)c(=O)[nH]n1 [Example 2, 4-Hydroxy-6-(3-methylbutyl)pyridazin-3(2H)-one]	61
CC(C)Cc1cc(O)c(=O)[nH]n1 [Example 5, 4-Hydroxy-6-(2-methylpropyl)pyridazin-3(2H)-one]	140
O=c1[nH]nc(C2CCCCC2)cc1O [Example 7, 6-Cyclohexyl-4-hydroxypyridazin-3(2H)-one]	1100
CC(C)c1cc(O)c(=O)[nH]n1 [Example 8, 4-Hydroxy-6-isopropylpyridazin-3(2H)-one]	36
CCCN(C)c1cc(O)c(=O)[nH]n1 [Example 11, 4-Hydroxy-6-(methyl(propyl)amino)pyridazin-3(2H)-one]	180
CCN(C)c1cc(O)c(=O)[nH]n1 [Example 12, 6-(Ethyl(methyl)amino)-4-hydroxypyridazin-3(2H)-one]	150
CC(C)(C)c1cc(O)c(=O)[nH]n1 [Example 14, 6-tert-Butyl-4-hydroxypyridazin-3(2H)-one]	44

Next, values leading:

IC50 [nM]	SMILES
40	O=c1[nH]nc(C2CC2)cc1O [Example 3, 6-Cyclopropyl-4-hydroxypyridazin-3(2H)-one]
4100	O=c1[nH]nc(C2CCOCC2)cc1O [Example 4, 4-Hydroxy-6-(tetrahydro-2H-pyran-4-yl)pyridazin-3(2H)-one]
670	O=c1[nH]nc(C2CCCC2)cc1O [Example 6, 6-Cyclopentyl-4-hydroxypyridazin-3(2H)-one]
2500	O=c1[nH]nc(N2CCC2)cc1O [Example 9, 6-(Azetidin-1-yl)-4-hydroxypyridazin-3(2H)-one]
46	CN(C)c1cc(O)c(=O)[nH]n1 [Example 10, 6-(Dimethylamino)-4-hydroxypyridazin-3(2H)-one]
3600	O=c1[nH]nc(N2CCCCC2)cc1O [Example 13, 4-Hydroxy-6-(piperidin-1-yl)pyridazin-3(2H)-one]
